Results published in the NIST ThermoML archive (doi:10.1016/j.fluid.2014.12.027).
Numbers after ± are expanded uncertainties.

settings: 298 K; 101.33 kPa; Liquid; Vibrating tube method

Row | SMILES | mass density
1 | OCCOCCO [diethylene glycol] | 1109.16 ± 0.34 kg/m3
2 | Cc1ccccc1 [toluene] | 857.606 ± 0.19 kg/m3
3 | OCCOCCOCCO [triethylene glycol] | 1116.05 ± 0.34 kg/m3
4 | CCCCCCCCCC [decane] | 722.439 ± 0.28 kg/m3
